In paper PMC9813676 (Current Research in Food Science, 2022):
Blank lines part the entries; values can stand above or below the compound they belong to.

Key:
[1] = rats, cited from earlier work
[2] = biological target: T1, porcine pancreatic lipase (Sus scrofa, UniProt P00591); assay: Fluorescence titration of lipase; assay type: binding; details: for n (number of binding sites) / binding affinity with lipase (in words): fluorescence titration; for n (number of binding sites): excitation 280 nm, Tris-HCl pH 8.0
T1 sequence (P00591 1-450): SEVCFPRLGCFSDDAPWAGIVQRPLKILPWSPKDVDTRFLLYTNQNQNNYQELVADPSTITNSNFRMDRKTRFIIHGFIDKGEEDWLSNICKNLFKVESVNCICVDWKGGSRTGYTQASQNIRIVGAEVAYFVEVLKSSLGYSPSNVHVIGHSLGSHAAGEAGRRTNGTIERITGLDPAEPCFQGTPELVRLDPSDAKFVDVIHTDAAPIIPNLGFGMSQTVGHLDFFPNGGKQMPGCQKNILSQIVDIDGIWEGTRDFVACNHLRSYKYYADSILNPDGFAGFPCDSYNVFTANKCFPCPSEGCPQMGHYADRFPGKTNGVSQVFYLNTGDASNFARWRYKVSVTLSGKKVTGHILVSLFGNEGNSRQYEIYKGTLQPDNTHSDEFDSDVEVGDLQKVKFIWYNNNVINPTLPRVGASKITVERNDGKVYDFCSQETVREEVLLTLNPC

[3] = biological target: T1, porcine pancreatic lipase; assay: Inhibitory activity on pancreatic lipase; details: IC50, pNPP substrate, Tris-HCl pH 8.0, 37 °C, means ± SD of triplicate
pancreatic lipase = details: ref Kumar and Alagawadi, 2013; cited from earlier work
[4] = ref Zhi et al., 1999; cited from earlier work
[5] = oral administration, ref Zhou et al., 2021

Compound: O=c1c(O)c(-c2ccc(O)c(O)c2)oc2cc(O)cc(O)c12 [Quercetin]
fat absorption in the gastrointestinal tract [1, 5]: significantly reduced fat absorption | fat excretion in feces [1, 5]: increased fat excretion in feces | n (number of binding sites) [2]: 1.419

Compound: Oc1cc(O)c2c(c1)O[C@H](c1ccc(O)c(O)c1)[C@H](O)C2 [Epicatechin]
Kd [2]: 3160 µM | binding affinity with lipase (in words) [2]: very weak binding affinity | n (number of binding sites) [2]: 0.734 | IC50 [3]: > 20700 µM

Compound: O=C1c2c(O)cc(O)cc2OC(c2ccc(O)c(O)c2)C1O (stereo not shown) [Taxifolin]
Kd [2]: 56.2 µM | n (number of binding sites) [2]: 0.956 | IC50 [3]: 3870 ± 939 µM

Compound: COc1ccc(-c2coc3cc(O)ccc3c2=O)cc1 [Formononetin]
Kd [2]: 83.2 µM | n (number of binding sites) [2]: 0.926 | IC50 [3]: > 1860 µM

Compound: O=C1C[C@@H](c2ccc(O)cc2)Oc2cc(O)cc(O)c21 [Naringenin]
Kd [2]: 33.3 µM | n (number of binding sites) [2]: 1.013 | IC50 [3]: 6032 ± 41 µM

Compound: O=c1c(-c2ccc(O)cc2)coc2cc(O[C@@H]3O[C@H](CO)[C@@H](O)[C@H](O)[C@H]3O)ccc12 [Daidzin]
Kd [2]: 141 µM | n (number of binding sites) [2]: 0.877 | IC50 [3]: > 1150 µM

Compound: O=C1c2c(O)cc(O)cc2O[C@H](c2cc(O)c(O)c(O)c2)[C@H]1O [Dihydromyricetin]
Kd [2]: 105 µM | n (number of binding sites) [2]: 0.911 | IC50 [3]: 7170 ± 418 µM

Compound: Oc1cc(O)c2c(c1)O[C@H](c1cc(O)c(O)c(O)c1)[C@H](O)C2 [Epigallocatechin]
Kd [2]: 5820 µM | binding affinity with lipase (in words) [2]: very weak binding affinity | n (number of binding sites) [2]: 0.670 | IC50 [3]: > 49000 µM

Compound: CCCCCCCCCCC[C@@H](C[C@@H]1OC(=O)[C@H]1CCCCCC)OC(=O)[C@H](CC(C)C)NC=O [Orlistat]
absorption in circulatory blood [4]: poorly absorbed

Compound: C[C@@H]1O[C@@H](O[C@H]2C(=O)c3c(O)cc(O)cc3O[C@@H]2c2ccc(O)c(O)c2)[C@H](O)[C@H](O)[C@H]1O [Astilbin]
Kd [2]: 151 µM | n (number of binding sites) [2]: 0.850 | IC50 [3]: 7316 ± 66 µM

Compound: COc1ccc([C@@H]2CC(=O)c3c(O)cc(O)cc3O2)cc1O [Hesperetin]
Kd [2]: 41.4 µM | n (number of binding sites) [2]: 0.998 | IC50 [3]: 3030 ± 829 µM

Continued, in another order:

Kd [2]: 0.671 µM | n (number of binding sites) [2]: 1.270 | IC50 [3]: 156 ± 22 µM
Compound: O=c1cc(-c2ccccc2)oc2cc(O)c(O)c(O)c12 [Baicalein]

Kd [2]: 3.86 µM | n (number of binding sites) [2]: 1.156 | IC50 [3]: 256 ± 54 µM
Compound: O=c1cc(-c2ccc(O)cc2)oc2cc(O)cc(O)c12 [Apigenin]

Kd [2]: 0.156 µM | n (number of binding sites) [2]: 1.435 | IC50 [3]: 99 ± 11 µM
Compound: O=c1cc(-c2ccc(O)c(O)c2)oc2cc(O)cc(O)c12 [Luteolin]

Kd [2]: 5.38 µM | n (number of binding sites) [2]: 1.115 | IC50 [3]: 367 ± 182 µM
Compound: C[C@@H]1O[C@@H](OC[C@H]2O[C@@H](Oc3c(-c4ccc(O)c(O)c4)oc4cc(O)cc(O)c4c3=O)[C@H](O)[C@@H](O)[C@@H]2O)[C@H](O)[C@H](O)[C@H]1O [Rutin]

Kd [2]: 10.8 µM | n (number of binding sites) [2]: 1.086 | IC50 [3]: > 925 µM
Compound: O=c1c(-c2ccc(O)cc2)coc2cc(O[C@@H]3O[C@H](CO)[C@@H](O)[C@H](O)[C@H]3O)cc(O)c12 [Genistin]

Kd [2]: 13.7 µM | n (number of binding sites) [2]: 1.097 | IC50 [3]: 574 ± 132 µM
Compound: O=c1c(O)c(-c2ccccc2)oc2cc(O)cc(O)c12 [Galangin]
anti-obesity effects ([1]; ref Kumar and Alagawadi, 2013): exhibited anti-obesity effects | inhibition on pancreatic lipase activity (pancreatic lipase): dose-dependent inhibition

Kd [2]: 11.6 µM | n (number of binding sites) [2]: 1.101 | IC50 [3]: 852 ± 667 µM
Compound: O=c1c(-c2ccc(O)cc2)coc2cc(O)ccc12 [Daidzein]

Kd [2]: 1.43 µM | n (number of binding sites) [2]: 1.232 | IC50 [3]: 16800 ± 692 µM
Compound: O=c1c(-c2ccc(O)cc2)coc2c([C@@H]3O[C@H](CO)[C@@H](O)[C@H](O)[C@H]3O)c(O)ccc12 [Puerarin]

Kd [2]: 4.66 µM | n (number of binding sites) [2]: 1.278
Compound: O=c1cc(-c2ccc(O)c(O)c2)oc2cc(O)c([C@@H]3O[C@H](CO)[C@@H](O)[C@H](O)[C@H]3O)c(O)c12 [Isoorientin]

Kd [2]: 4.06 µM | n (number of binding sites) [2]: 1.163 | IC50 [3]: > 983 µM
Compound: O=c1c(O)c(-c2ccc(O)cc2)oc2cc(O)cc(O)c12 [Kaempferol]

Kd [2]: 16.3 µM | n (number of binding sites) [2]: 0.964 | IC50 [3]: > 593 µM
Compound: O=c1cc(-c2ccccc2)oc2cc(O)cc(O)c12 [Chrysin]

Kd [2]: 4.94 µM | n (number of binding sites) [2]: 1.129 | IC50 [3]: > 2960 µM
Compound: O=c1c(-c2ccc(O)cc2)coc2cc(O)cc(O)c12 [Genistein]

Kd [2]: 10.9 µM | n (number of binding sites) [2]: 1.086 | IC50 [3]: > 1160 µM
Compound: COc1ccc(-c2coc3cc(O[C@@H]4O[C@H](CO)[C@@H](O)[C@H](O)[C@H]4O)ccc3c2=O)cc1 [Ononin]
